The record followed here is ChEMBL document CHEMBL1833931, “Simple synthetic toll-like receptor 2 ligands” (Bioorg Med Chem Lett, 2011).

Active and inactive are the calls of the source. The rule behind the calls is not given here.

The target of the experiment is Toll-like receptor 2 (Homo sapiens) (UniProt O60603). Kind of experiment: Agonist activity at TLR2 expressed in HEK293 cells co-expressing pNF-kappaB-Luc Cis assessed as NF-kappaB activation at 100 nM by luciferase reporter gene assay. Type of experiment: functional, cell-based.
Chain of Toll-like receptor 2 (Homo sapiens) (O60603 whole entry): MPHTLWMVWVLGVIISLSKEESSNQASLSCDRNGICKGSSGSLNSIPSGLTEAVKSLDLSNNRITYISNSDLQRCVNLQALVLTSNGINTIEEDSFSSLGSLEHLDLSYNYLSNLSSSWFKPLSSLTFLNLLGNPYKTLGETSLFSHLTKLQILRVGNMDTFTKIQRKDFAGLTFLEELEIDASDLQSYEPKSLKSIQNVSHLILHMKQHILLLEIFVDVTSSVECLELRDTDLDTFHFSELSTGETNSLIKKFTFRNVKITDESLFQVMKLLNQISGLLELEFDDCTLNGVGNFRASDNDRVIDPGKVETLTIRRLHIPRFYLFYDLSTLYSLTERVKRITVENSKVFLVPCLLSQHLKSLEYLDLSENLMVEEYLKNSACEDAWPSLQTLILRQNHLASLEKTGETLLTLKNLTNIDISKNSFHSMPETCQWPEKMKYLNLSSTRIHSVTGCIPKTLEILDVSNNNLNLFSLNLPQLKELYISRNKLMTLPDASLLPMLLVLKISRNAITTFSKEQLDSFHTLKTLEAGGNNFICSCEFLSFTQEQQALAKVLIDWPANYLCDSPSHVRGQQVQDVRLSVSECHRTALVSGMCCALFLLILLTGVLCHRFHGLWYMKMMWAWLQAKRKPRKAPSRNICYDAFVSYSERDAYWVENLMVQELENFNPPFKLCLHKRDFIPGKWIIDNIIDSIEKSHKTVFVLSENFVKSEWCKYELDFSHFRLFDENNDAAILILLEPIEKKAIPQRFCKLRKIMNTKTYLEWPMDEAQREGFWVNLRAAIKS

`CCCCCCCCCCCCCCCC(=O)NC(CCCCCCCCCCCCCC)C(=O)O` (configuration not stated): the outcome was Active.

Consider `CCCCCCCCCCCCCCCC(=O)NC(CO)CCCCCCCCCCCCCC` (configuration not stated), for which the outcome was Active.
